Assay results taken from ChEMBL document CHEMBL1141714, “Peptidyl epoxides extended in the P' direction as cysteine protease inhibitors: effect on affinity and mechanism of inhibition” (Bioorg Med Chem, 2008).

What was measured:
Papain = target: T1, Papain (Carica papaya, UniProt P00784); assay: Binding affinity to Carica papaya papain treated up to 2 hrs at 25 degC by Dixon plot
T1 sequence (P00784 whole entry): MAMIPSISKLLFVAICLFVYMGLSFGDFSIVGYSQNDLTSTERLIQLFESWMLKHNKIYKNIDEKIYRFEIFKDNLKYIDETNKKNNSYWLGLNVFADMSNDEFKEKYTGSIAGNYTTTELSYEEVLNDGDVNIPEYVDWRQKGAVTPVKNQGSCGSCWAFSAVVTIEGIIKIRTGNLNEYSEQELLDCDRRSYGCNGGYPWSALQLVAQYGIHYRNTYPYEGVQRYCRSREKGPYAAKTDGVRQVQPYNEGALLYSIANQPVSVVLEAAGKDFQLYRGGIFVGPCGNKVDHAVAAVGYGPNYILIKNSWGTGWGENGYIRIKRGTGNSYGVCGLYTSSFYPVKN

Cathepsin B = Cathepsin B (Homo sapiens, UniProt P07858); assay: Binding affinity to cathepsin B treated up to 2 hrs at 37degC by Dixon plot

Row | Structure (SMILES) | Ki (Papain) | Ki (Cathepsin B)
1 | O=C(N[C@@H](Cc1ccccc1)C(=O)NCC1CO1)OCc1ccccc1 (stereo partly specified) | 390 µM | 1020 µM
2 | COC(=O)[C@H](C)NC(=O)[C@H](C)NC(=O)C[C@H]1O[C@H]1CNC(=O)[C@H](Cc1ccccc1)NC(=O)OCc1ccccc1 | 18 µM | 94 µM
3 | COC(=O)[C@H](C)NC(=O)[C@H](C)NC(=O)C[C@@H]1O[C@H]1CNC(=O)[C@H](Cc1ccccc1)NC(=O)OCc1ccccc1 | 73 µM | 244 µM
